# Experimental data as given in patent publication US20100221709A1, “METHODS FOR IDENTIFYING AGENTS THAT MODULATE APOPTOSIS IN CELLS THAT OVER-EXPRESS A BCL-2 FAMILY MEMBER PROTEIN” (priority 2005, published 2010).
# Values joined by “and” are separate entries in the source; they are usually repeats but may differ in a detail not shown here. Identical values can stand only once.
# Assays:
# [1] = tested on: TAMH cells over-expressing Bcl-xL E92L; experiment: STS and antimycin toxicity, Alamar Blue viability; type: cell-based, murine; settings: 24 h treatment
# Procedure: (§1) TAMH cells were transfected with DNA encoding each of the mutant Bcl-xL proteins by lipofection (See Example 1 for method). For analysis of Bcl-xL expression, 20 μg of cell protein was separated by 20% SDS-PAGE and transferred to nitrocellulose membranes. Immunodetection of Bcl-xL was carried out using rabbit anti-Bcl-xL antibody and Protein A/horseradish peroxidase conjugate, followed by chemiluminescent detection. Cells were grown to about 80% confluence in 96-well plates followed by addition of 100 μl of 2×AA1 or staurosporine (STS) solution in complete medium. STS is a natural product originally isolated from the bacterium Streptomyces and found to be capable of inducing apoptosis in certain cells and which induction of apoptosis could be blocked by the expression of a Bcl-2 family protein. Cell viability was determined spectrophotometrically after 24 h treatment as the ratio of reduced and oxidized Alamar Blue (BIOSOURCE) at 570 nm and 600 nm, respectively. All results were normalized against DMSO controls. LD50 values were calculated by non-linear regression analysis using Prism software (Graphpad).
# [2] = tested on: TAMH cells over-expressing Bcl-xL A142L; experiment: STS and antimycin toxicity, Alamar Blue viability; type: cell-based, murine; settings: for LD50: 24 h treatment
# Procedure: as §1
# [3] = tested on: TAMH cells over-expressing Bcl-xL F97W; experiment: STS and antimycin toxicity, Alamar Blue viability; type: cell-based, murine; settings: 24 h treatment
# Procedure: as §1
# [4] = tested on: TAMH cells over-expressing Bcl-xL F146L; experiment: STS and antimycin toxicity, Alamar Blue viability; type: cell-based, murine; settings: for LD50: 24 h treatment
# Procedure: as §1
# [5] = tested on: TAMH cells over-expressing Bcl-xL WT; experiment: STS and antimycin toxicity, Alamar Blue viability; type: cell-based, murine; settings: 24 h treatment
# Procedure: as §1
# [6] = tested on: TAMH vector-only control cells; experiment: STS toxicity, Alamar Blue viability; type: cell-based, murine; settings: 24 h treatment
# Procedure: as §1
# [7] = tested on: RPMI-8226 cells; experiment: GI50 assay, MTT cell proliferation; type: cell-based, human
# Procedure: RPMI-8226 cells were grown in 96 well plates for 24 h prior to addition of 2-methoxy antimycins. Antimycin stocks in dimethyl sulfoxide (DMSO) were serially diluted in RPMI. Cells were incubated for 48 h with compounds at final compound concentrations ranging from 10^−4 to 10^−8 M. MTT cell proliferation assays were performed in quadruplicate and percent growth inhibitions were calculated as (A570 (control cells)-A570 (treated cells))/A570 (control cells). GI50 was extrapolated from semi-log plots of the dose response for each compound. […] After 72 h drug exposures, 1 μCi/ml [^3H]-thymidine was added to wells. Cells were incubated for an additional 24 h, and then transferred to GF/C filter plates (Packard) using a plate washer. Filters were dried, added to scintillant, and counted in a TopCount® scintillation counter (Packard). Drug response is expressed as the percentage of vehicle-treated controls, and each value shown is the average of three determinations.
# [8] = biological target: T1, Bcl-xL(ΔC) A142L (Homo sapiens, UniProt Q07817, A142L); experiment: Fluorescence anisotropy binding
# T1 construct: inferred from pET22b(+) NdeI/XhoI cloning and nickel-NTA purification) (C); made in house; host or cells: Escherichia coli BL21(DE3) carrying pUB520
# Procedure: (§2) A pET22b (Novagen) vector coding for Bcl-xL(ΔC), a mutant Bcl-xL protein without the COOH terminal region, was transformed into Escherichia coli BL21(DE3) cells that carried pUB520 (encoding human Arg tRNA) and grown to an A600 of 0.6. Protein expression was induced with 0.1 mM isopropyl β-D-thiogalactoside at 30° C. The cells were resuspended 1:5 (w/v) in PEB buffer (50 mM Tris, pH 8.0, 200 mM NaCl, 0.2 mM phenylmethylsulfonyl fluoride, 5 mM β-mercaptoethanol, 5 mM imidazole, and 1% (v/v) glycerol), and stirred for 20 min at 4° C. Cells were disrupted by pulse sonication, and the soluble fraction was loaded onto a nickel-nitrilotriacetic acid column (Qiagen) equilibrated with PEB buffer. The column was washed with 40 mM imidazole, eluted with 200 mM imidazole, and the protein fractions were pooled and dialyzed (50 mM Tris, pH 8.0, 200 mM NaCl, 0.2 mM phenylmethylsulfonyl fluoride) at 4° C. overnight. The dialyzed protein was concentrated to 10 mg/ml and fractionated on a Superdex 75 gel filtration column (Amersham Biosciences). The fractions containing Bcl-xL(ΔC) protein were pooled, exchanged into low-salt buffer (same as for previous dialysis buffer, except 50 mM NaCl), and loaded onto a MonoQ anion exchange column (Amersham Biosciences). Protein was eluted from the column with increasing NaCl gradient, pooled and concentrated.
# (§3) All reagents were prepared in 0.2 μm-filtered PBS with fresh 1 mM DTT. […] Slit widths were set at 10 nm for both excitation and emission.
# [9] = biological target: T2, Bcl-xL(ΔC) F97W (Homo sapiens, UniProt Q07817, F97W); experiment: Fluorescence anisotropy binding
# T2 construct: inferred from pET22b(+) NdeI/XhoI cloning and nickel-NTA purification) (C); made in house; host or cells: Escherichia coli BL21(DE3) carrying pUB520
# Procedure: as §2, §3
# [10] = biological target: T3, Bcl-xL(ΔC) F146L (Homo sapiens, UniProt Q07817, F146L); experiment: Fluorescence anisotropy binding
# T3 construct: inferred from pET22b(+) NdeI/XhoI cloning and nickel-NTA purification) (C); made in house; host or cells: Escherichia coli BL21(DE3) carrying pUB520
# Procedure: as §2, §3
# [11] = biological target: T4, Bcl-xL(ΔC) WT (Homo sapiens, UniProt Q07817); experiment: Pore assay, calcein release from large unilamellar vesicles; type: biochemical
# T4 construct: inferred from pET22b(+) NdeI/XhoI cloning and nickel-NTA purification) (C); made in house; host or cells: Escherichia coli BL21(DE3) carrying pUB520
# Procedure: Large unilamellar vesicles composed of 60% dioleoylphophatidylcholine and 40% dioleoylphosphatidylglycerol were prepared by the extrusion method of Mayer et al., supra. Lipid stocks, in chloroform, were mixed and dried under a stream of nitrogen gas. The lipid was resuspended by vortexing for 30 min in a solution of 40 mM calcein (Molecular Probes), 25 mM KCl, and 10 mM KOAc, pH 5.0. After 10 freeze-thaw cycles, the lipid suspension was extruded through two 0.1 μm pore diameter Nucleopore filters. Non-entrapped dye was removed by passage over a Sephadex G10 column (Amersham Biosciences). Lipid concentration was measured using the ammonium ferrothiocyanate method (Stewart, Anal. Biochem. 104:10-14, 1980).
# For pore assays, recombinant truncated Bcl-2 family protein or mutant protein (Bcl-xL(ΔC)) (500 nM) was added to large unilamellar vesicles (60 μM lipid concentration) in 100 mM KCl, 10 mM KOAc, pH 5.0, and fluorescence measured (490 nm excitation, 520 nm emission) with a Fluoromax-3 spectrophotometer. Peptides of the BH3 domain were incubated with the Bcl-xL(ΔC) 5 min prior to mixing with liposomes. AA1 was added to liposomes 1 min before adding the Bcl-xL(ΔC) protein. Samples for kinetic assays were analyzed in a thermostatted cuvette at 37° C. with constant stirring. Dose responses were measured in black quartz microplates (Hellma) at room temperature. Calcein release was expressed as percentage of maximum release with detergent lysis (0.1% Triton X-100).
# [12] = tested on: RPMI-8226 human myeloma cells; experiment: RPMI-8226 myeloma tumor xenografts
# Procedure: Six to nine-week old Nod/Les2 Scid/J mice were inoculated with 3×10^7 RPMI-8226 cells by interscapular subcutaneous injection. Mice were maintained under specific pathogen-free conditions. Palpable tumor nodules were measured in two dimensions with calipers and tumor volumes calculated in mm^3 as (length×width^2)/2. Blood samples were collected by retro-orbital bleed for human light chain measurements by ELISA with lambda-specific antibody and horseradish peroxidase detection (BD Biosciences). Animals were sacrificed by halothane inhalation, and histologic examination of tumors and internal organs was performed. All experiments were approved by the Fred Hutchinson Cancer Research Center Institutional Animal Care and Use Committee.
# (§4) 2-OMe antimycin A1 was synthesized from antimycin A1 (Sigma) and dissolved in phosphate-buffered saline with 20% Cremaphor, 25% ethanol (3 mg/ml) for parenteral administration by tail vein injection in a total volume of 100 μl. Control mice received injections of Cremaphor/ethanol vehicle.
# Tissues were fixed in 10% buffered formalin, embedded in paraffin, sectioned and stained with hematoxylin and eosin. TUNEL staining was performed using 0.3 units/ml terminal deoxynucleotidyl transferase and biotinylated dATP with development by avidin-biotin peroxidase method. Bcl-xL immunohistochemistry was performed using anti-Bcl-xL antibody (BD Biosciences) followed by biotinylated secondary antibody and peroxidase-labeled ABC reagent (Vector, Burlingame Calif.).
# (§5) To determine whether 2-OMeAA1 has anti-tumor activity in vivo, a total of 12 NOD/SCID mice in three experiments were inoculated with 3×10^7 RPMI-8226 human myeloma cells by interscapular subcutaneous injection. […] In total, six mice received three intravenous doses of 10 mg/kg 2-OMeAA1 on alternate days starting on day 6. Six control mice received injections of Cremaphor/ethanol vehicle without drug.
# [13] = tested on: RPMI-8226 cells; experiment: Combined cytotoxicity with standard anticancer agents; type: cell-based, human; settings: suboptimal combinations, 24 h
# Procedure: Concentrations of standard chemotherapeutic agents were adjusted to achieve <20% cell death as single agents over 24 h treatments. Cells treated with 20 μg/ml 2-OMe antimycin A1 and indicated concentrations of etoposide, melphalan or daunorubicin. Predicted viability at 24 h is derived from additive cytotoxicity of single agents (open symbols). Observed viability for combination (closed symbols). Each symbol represents separate experiment. Viabilities (PI-negative) are normalized to untreated cells.
# [14] = LC/MS analyses of plasma after administration; type: in vivo, mice; settings: preliminary LC/MS analyses
# [15] = tested on: NOD/SCID mice; experiment: In vivo toxicity, intravenous dosing
# Procedure: as §4, §5
# T4 sequence (Q07817 1-211 limits assumed, stated change not applied): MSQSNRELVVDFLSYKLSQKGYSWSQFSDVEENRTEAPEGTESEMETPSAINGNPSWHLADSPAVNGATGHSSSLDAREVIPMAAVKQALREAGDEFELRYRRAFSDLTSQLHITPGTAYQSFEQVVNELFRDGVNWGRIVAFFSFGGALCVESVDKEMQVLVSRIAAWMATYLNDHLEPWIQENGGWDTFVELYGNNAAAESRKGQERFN
# T1 sequence (Q07817 1-211 A142L limits assumed): as the sequence (Q07817 1-211 limits assumed, stated change not applied) above, with A142L counted along it
# T3 sequence (Q07817 1-211 F146L limits assumed): as the sequence (Q07817 1-211 limits assumed, stated change not applied) above, with F146L counted along it
# T2 sequence (Q07817 1-211 F97W limits assumed): as the sequence (Q07817 1-211 limits assumed, stated change not applied) above, with F97W counted along it
compound,measurement,setting,value
"CN[C@@H]1C[C@H]2O[C@@](C)([C@@H]1OC)n1c3ccccc3c3c4c(c5c6ccccc6n2c5c31)C(=O)NC4 [STS, staurosporine]",LD50,[1],0.52 ± 0.12 µM
same,LD50,[2],0.49 ± 0.11 µM
same,LD50,[3],0.34 ± 0.10 µM
same,LD50,[4],0.38 ± 0.04 µM
same,LD50,[5],0.58 ± 0.1 µM and 0.58 ± 0.14 µM
same,LD50,[6],0.11 ± 0.01 µM
2-OMe antimycin A5,"activity (GI50) relative to 2-OMe antimycin A1, A2 and A3",[7],approximately ⅓
"CCCCCC[C@H]1C(=O)O[C@H](C)[C@H](NC(=O)c2cccc(NC=O)c2O)C(=O)O[C@@H](C)[C@@H]1OC(=O)CC(C)C [AA1, antimycin A1]",LD50,[1],1.72 ± 0.34^2 μM
same,LD50,[1]; listed as antimycin A1,1.72 ± 0.3 µM
same,sensitivity of mutant cells to antimycin A1,[2],completely insensitive
same,LD50,[2],>10 µM
same,LD50,[3],5.12 ± 0.94^2 μM
same,LD50,[3]; listed as antimycin A1,5.12 ± 0.9 µM
same,sensitivity of mutant cells to antimycin A1,[4],completely insensitive
same,LD50,[4],>10 µM
same,LD50,[5],0.47 ± 0.07 µM
same,LD50,[5]; listed as antimycin A1,0.47 µM
same,fold increase in Kd of AA1 binding compared with Bcl-xL wt(ΔC),[8],20 fold
same,fold increase in Kd of AA1 binding compared with Bcl-xL wt(ΔC),[9],8 fold
same,fold decrease in AA1 affinity,[10],~10 fold
same,effect on Bcl-xL pore-forming activity (FIG. 3A),[11],inhibited
"CCCCCC[C@H]1C(=O)O[C@H](C)[C@H](NC(=O)c2cccc(NC=O)c2OC)C(=O)O[C@@H](C)[C@@H]1OC(=O)CC(C)C [2-OMeAA1, 2-OMe antimycin A1]",adverse effects in treated mice,[12]; 10 mg/kg,No adverse effects
same,average reduction of serum levels of human light chain,"[12]; 10 mg/kg i.v., after the third injection",87%
same,"mice with regression of tumor nodules, second round","[12]; 10 mg/kg on alternate days, days 26 to 31",six of six
same,apoptosis in tumor sections,[12]; 24 and 48 h after a single 10 mg/kg intravenous treatment,widespread apoptosis
same,mice with tumor regression during treatment,[12]; three i.v. doses of 10 mg/kg on alternate days from day 6,Five of six
same,combined killing with etoposide or melphalan,[13],Supra-additive killing
same,reformation of antimycin A1 in plasma,[14],have not demonstrated reformation of antimycin A1
same,histologic examination of normal tissues,[15]; 10 mg/kg,No cellular injury or inflammation
same,LD50 dose,[15]; schedule of 3 intravenous doses on alternate days,20 mg/kg
same,mice survived without apparent toxicity,[15]; three intravenous doses at 10 mg/kg on alternate days,6/6
same,effect on Bcl-xL pore-forming activity (FIG. 3A),[11],inhibited
